The values that follow come from ChEMBL document CHEMBL6177939, “The role of silicon in drug discovery: a review” (RSC Med Chem, 2024).

In experiment [1] the test system is Human immunodeficiency virus 2. The experiment in a line: Antiviral activity against HIV-2 ROD infected in human MT-4 cells assessed as reduction in virus-induced cytopathic effect incubated for 5 days by spectrophotometric based MTT assay. It is filed as functional, organism-based. As to conditions: Human immunodeficiency virus 2, ROD, MT4, 120 h. (In general: Cytopathic effects are the visible damage that an infection or toxin causes in cultured cells.)

The nature of experiment [2]: Agonist activity at rat GPR81 transfected in T-REX-CHO cells by cAMP assay. It counts as cell-based. For orientation: Cyclic AMP is a second messenger, typically raised through Gs and lowered through Gi signalling.
Experiment [3] addresses Hydroxycarboxylic acid receptor 2 (Rattus norvegicus, UniProt Q80Z39). Briefly: Agonist activity at rat GPR109A transfected in T-REX-CHO cells by cAMP assay. It counts as cell-based.
Experiment [4] relates to MG-22A. The experiment in a line: Cytotoxicity against mouse MG-22A cells assessed as reduction in cell growth by measuring lethal concentration for 72 hrs by MTT assay. It counts as functional. (Tetrazolium dyes change colour on reduction, which living cells bring about.)
Experiment [5] relates to HT-1080. The experiment in a line: Cytotoxicity against human HT-1080 cells assessed as reduction in cell growth by measuring lethal concentration for 72 hrs by MTT assay. It is filed as functional.
The test system of experiment [6] is Staphylococcus epidermidis. The experiment in a line: Antibacterial activity against Staphylococcus epidermidis assessed as inhibition of bacterial growth incubated for 24 hrs by nutrient agar plate method. It counts as functional.
Experiment [7] concerns HT-1080. Briefly: Cytotoxicity against human HT-1080 cells assessed as reduction in cell growth measured for 72 hrs by crystal violet staining based analysis. It counts as functional. To be noted: HT-1080, 72 h.
Experiment [8] concerns MG-22A. The experiment in a line: Cytotoxicity against mouse MG-22A cells assessed as reduction in cell growth measured for 72 hrs by crystal violet staining based analysis. It is filed as functional.
A further experiment has as its system Bacillus subtilis. Briefly: Antibacterial activity against Bacillus subtilis assessed as reduction in bacterial growth incubated for 12 hrs by broth micr-dilution method. It is filed as functional.
The subject of experiment [9] is Escherichia coli. Briefly: Antibacterial activity against Escherichia coli assessed as reduction in bacterial growth incubated for 12 hrs by broth micr-dilution method. It counts as functional.
For another experiment, the system named is Vibrio cholerae. The experiment in a line: Antibacterial activity against Vibrio cholerae assessed as inhibition of bacterial growth. It counts as functional.
Experiment [10] deals with Staphylococcus aureus. Briefly: Antibacterial activity against Staphylococcus aureus assessed as reduction in bacterial growth incubated for 12 hrs by broth micr-dilution method. It counts as functional.
A further experiment concerns Pseudomonas aeruginosa. The experiment in a line: Antibacterial activity against Pseudomonas aeruginosa PTCC 1074 assessed as reduction in cell growth incubated for 24 hrs by Mueller-Hinton Broth micro dilution method. It is filed as functional.
The subject of experiment [11] is Staphylococcus aureus. Briefly: Antibacterial activity against Staphylococcus aureus PTCC 1112 assessed as reduction in cell growth incubated for 24 hrs by Mueller-Hinton Broth micro dilution method. It counts as functional.
Another experiment relates to Salmonella typhimurium. The experiment in a line: Antibacterial activity against Salmonella enterica subsp. enterica serovar Typhimurium PTCC 1609 assessed as reduction in cell growth incubated for 24 hrs by Mueller-Hinton Broth micro dilution method. It is filed as functional.
The test system of experiment [12] is Escherichia coli. The experiment in a line: Antibacterial activity against Escherichia coli PTCC 1330 assessed as reduction in cell growth incubated for 24 hrs by Mueller-Hinton Broth micro dilution method. It is filed as functional.
For experiment [13], the system named is Panel NCI-60 (60 carcinoma cell lines). Briefly: Cytotoxicity against human Panel NCI-60 (60 carcinoma cell lines) assessed as reduction in cell growth incubated for 72 hrs by CCK-8 assay. It is filed as functional, cell-based.

Values after ≈ are worked out from the molar mass of the structure shown.

Chain of Hydroxycarboxylic acid receptor 2 (Q80Z39 whole entry): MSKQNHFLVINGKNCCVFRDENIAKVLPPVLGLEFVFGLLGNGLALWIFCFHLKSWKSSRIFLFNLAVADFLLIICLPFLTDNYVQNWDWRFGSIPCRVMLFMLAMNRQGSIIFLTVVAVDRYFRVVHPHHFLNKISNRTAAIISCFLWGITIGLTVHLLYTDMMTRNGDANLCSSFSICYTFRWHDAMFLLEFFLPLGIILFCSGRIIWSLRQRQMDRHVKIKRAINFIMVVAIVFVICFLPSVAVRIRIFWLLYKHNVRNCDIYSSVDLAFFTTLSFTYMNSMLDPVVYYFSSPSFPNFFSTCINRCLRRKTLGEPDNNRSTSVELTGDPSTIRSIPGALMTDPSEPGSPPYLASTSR

By EC50 is commonly meant the concentration giving half of the maximal effect. For `Cc1cn([C@@H]2O[C@H](CO[Si](C)(C)C(C)(C)C)[C@@]3(OS(=O)(=O)C=C3N)[C@H]2O[Si](C)(C)C(C)(C)C)c(=O)[nH]c1=O`, the EC50 in [1] turned out to be 0.034 µg/mL (≈ 0.0576 µM).
`Cc1cn([C@@H]2O[C@H](CO[Si](C)(C)C(C)(C)C)[C@@]3(OS(=O)(=O)C=C3N)[C@H]2O)c(=O)[nH]c1=O`: in [1], the concentration giving a half-maximal response (EC50) is > 100 µg/mL.
With `CC(=O)Nc1ccn([C@@H]2O[C@H](CO[Si](C)(C)C(C)(C)C)[C@@]3(OS(=O)(=O)C=C3N)[C@H]2O[Si](C)(C)C(C)(C)C)c(=O)n1`, the 50% effective concentration (EC50) in experiment [1] is 0.097 µg/mL (≈ 0.157 µM).
Compound `CCOc1cc(Cl)c(C(=O)NC(=O)Nc2nc3c(s2)CCCC3)cc1N1CCOCC1` registered an EC50 in [2] of 240 nM.
For the compound `CCOc1cc(Cl)c(C(=O)NC(=O)Nc2nc3c(s2)CCCC3)cc1-n1cccn1`, the EC50 was 250 nM in [3] and 18 nM in experiment [2].
`CCOc1cc(Cl)c(C(=O)NC(=O)Nc2nc3c(s2)C[Si](c2ccccc2)(c2ccc(OC)cc2)CC3)cc1-n1cccn1` (centres undefined): the half-maximal effective concentration (EC50) in [3] came out at 470 nM; in experiment [2], 210 nM.
As to `CCOc1cc(Cl)c(C(=O)NC(=O)Nc2nc3c(s2)C[Si](C)(c2ccc(OC)cc2)CC3)cc1-n1cccn1` (centres undefined), the EC50 turned out to be 470 nM in [3] and 210 nM in [2].
The LC50 is the concentration lethal to half of the exposed cells or organisms. As for `CCCCCCC[Si](C)(C)OCC[N+]1(C)CCc2ccccc2C1.[I-]` (centres undefined), the median lethal concentration (LC50) in the experiment with MG-22A [4] is 1 µg/mL; in the experiment with HT-1080 [5], < 1 µg/mL.
Broadly, the MIC is the smallest concentration in the dilution series that meets the test's criterion for growth inhibition. On to `CC[Si](CC)(CC)c1cccc(CN(Cc2ccccn2)Cc2ccccn2)c1O`, for which the MIC in [6] was determined as 1.2 µg/mL (≈ 2.86 µM).
Turning to `CCC[Si]1(CCC)CCc2nc(NC(=O)NC(=O)c3cc(N4CCOCC4)c(OCC)cc3Cl)sc2C1`, the EC50 is 1200 nM in experiment [3] and 1000 nM in [2].
The term IC50 denotes the concentration that inhibits the measured activity by half. For the compound `CC[Si](CC)(CC)c1ccc([Si](C)(CCCN2CCCCC2)c2ccc([Si](CC)(CC)CC)o2)o1`, the 50% inhibitory concentration (IC50) with HT-1080 [7] and with MG-22A [8] was 3 µg/mL (≈ 5.64 µM) each time.
Turning to `CC[Si](CC)(CC)c1ccc([Si](C)(CCCN2CCN(C)CC2)c2ccc([Si](CC)(CC)CC)o2)o1`, the IC50 in the experiment on HT-1080 [7] and in the experiment on MG-22A [8] was 3 µg/mL (≈ 5.48 µM) each time.
The MIC50 is an inhibitory concentration at the 50% level, which refers to growth in some studies and to a panel of isolates in others. For the compound `O=c1c(I)cn(Cc2cn(CCC[Si-]345OCC[N+]3(CCO4)CCO5)nn2)c(=O)n1Cc1cn(CCC[Si-]234OCC[N+]2(CCO3)CCO4)nn1` (centres undefined), the MIC50 in the experiment with Bacillus subtilis, in the experiment with Escherichia coli [9], with Vibrio cholerae and in the experiment with Staphylococcus aureus [10] was 0.18 µg/mL (≈ 0.217 µM) throughout.
Turning to `CCOc1cc(Cl)c(C(=O)NC(=O)Nc2nc3c(s2)C[Si](C)(c2c(OC)cccc2OC)CC3)cc1-n1cccn1` (centres undefined), the half-maximal effective concentration (EC50) in experiment [3] came to 470 nM; in experiment [2] it was 210 nM.
For `C[Si](C)(C)C(S)(C(=S)CCCCn1nnc(Sc2ccccc2)n1)[Si](C)(C)C`, the MIC in the experiment on Pseudomonas aeruginosa, in the experiment on Staphylococcus aureus [11], in the experiment with Salmonella typhimurium and in the experiment with Escherichia coli [12] was 3.91 µg/mL (≈ 8.34 µM) each time.
For `CC[Si](CC)(CC)OCC[N+]1(C)CCc2ccccc2C1.[I-]` (centres undefined), the LC50 was 2 µg/mL in the experiment on MG-22A [4] and < 1 µg/mL in the experiment with HT-1080 [5].
As to `CCC[Si]1(c2ccc(OC)cc2)CCc2nc(NC(=O)NC(=O)c3cc(-n4cccn4)c(OCC)cc3Cl)sc2C1` (centres undefined), the concentration giving a half-maximal response (EC50) in experiment [3] came out at 470 nM; in experiment [2], 210 nM.
In the case of `O=c1c(Cl)cn(Cc2cn(CCC[Si-]345OCC[N+]3(CCO4)CCO5)nn2)c(=O)n1Cc1cn(CCC[Si-]234OCC[N+]2(CCO3)CCO4)nn1` (centres undefined), the MIC50 in the experiment with Bacillus subtilis, with Escherichia coli [9], in the experiment with Vibrio cholerae and with Staphylococcus aureus [10] was 0.18 µg/mL (≈ 0.243 µM) in each case.
On to `CCOc1cc(Cl)c(C(=O)NC(=O)Nc2nc3c(s2)C[Si](c2ccccc2)(c2c(OC)cccc2OC)CC3)cc1-n1cccn1` (centres undefined), for which the EC50 in experiment [3] was 470 nM; in experiment [2], 210 nM.
For the compound `CC1(C)CC(NC(=O)[C@H](Cc2ccc(-c3ccccc3)cc2)NC(=O)c2ccc(OCC[Si](C)(C)C)cc2)CC(C)(C)N1`, the half-maximal inhibitory concentration (IC50) in [13] worked out at 1500 nM.
Consider `CCC[Si]1(c2c(OC)cccc2OC)CCc2nc(NC(=O)NC(=O)c3cc(-n4cccn4)c(OCC)cc3Cl)sc2C1` (centres undefined), for which the values for the concentration giving a half-maximal response (EC50) in [3] and in experiment [2] were 470 nM and 210 nM, respectively.
In the case of `CCCCCCCC[Si](C)(C)OCC[N+]1(C)CCc2ccccc2C1.[I-]` (centres undefined), the LC50 in the experiment with MG-22A [4] is 1 µg/mL; in the experiment with HT-1080 [5] it was < 1 µg/mL.
On to `CC(C)(C)[Si](C)(C)OC[C@H]1O[C@@H](n2ccc(=O)[nH]c2=O)[C@H](O[Si](C)(C)C(C)(C)C)[C@]12OS(=O)(=O)C=C2N`, for which, in experiment [1], the concentration for a half-maximal effect (EC50) was found to be 0.114 µg/mL (≈ 0.198 µM).
`CN1CCN(CCC[Si](C)(c2ccc([Si](C)(C)C)o2)c2ccc([Si](C)(C)C)o2)CC1`: the concentration for half-maximal inhibition (IC50) in the experiment on HT-1080 [7] and in the experiment with MG-22A [8] was 3 µg/mL (≈ 6.48 µM) in each case.
Regarding `CCCCCCCCCCC[Si](C)(C)OCC[N+]1(C)CCc2ccccc2C1.[I-]` (centres undefined), the values for the median lethal concentration (LC50) in the experiment with MG-22A [4] and in the experiment on HT-1080 [5] were 1 µg/mL and < 1 µg/mL, respectively.
